Laboratory results published in ChEMBL document CHEMBL5512671, “Structure-Based Optimization of Novel Sterol 24-C-Methyltransferase Inhibitors for the Treatment of Candida albicans Infections” (J Med Chem, 2024).
Converted amounts (≈) assume the structure as drawn. The source made the active and inactive calls. The calls are words filed in the database; no cut-off is given here.

How the values were obtained:
Candida albicans [1] = test: Antifungal activity against Candida albicans SC5314 assessed as inhibition of fungal growth incubated for 24 hrs by CLSI protocol based broth microdilution method; format: functional
Candida albicans [2] = test: Antifungal activity against Candida albicans erg6delta/delta assessed as inhibition of fungal growth incubated for 24 hrs by CLSI protocol based broth microdilution method; format: functional
Candida albicans [3] = test: Synergistic antifungal activity against Candida albicans SC5314 assessed as inhibition of fungal growth incubated for 24 hrs in presence of (Z)-1,5-dimethyl-4-(4-(naphthalen-2-yl)-2-(phenylimino)thiazol-3(2H)-yl)-2-phenyl-1,2-dihydro-3H-pyrazol-3-one by broth microdilution checkerboard assay; format: functional
Candida albicans [4] = test: Antifungal activity against Candida albicans SN152 assessed as inhibition of fungal growth incubated for 24 hrs by CLSI protocol based broth microdilution method; format: functional
Candida albicans [5] = test: Synergistic antifungal activity against Candida albicans SC5314 assessed as inhibition of fungal growth incubated for 24 hrs in presence of (Z)-4-(4-(4-bromophenyl)-2-(phenylimino)thiazol-3(2H)-yl)-1,5-dimethyl-2-phenyl-1,2-dihydro-3H-pyrazol-3-one by broth microdilution checkerboard assay; format: functional
[6] = molecular target: T1, Sterol 24-C-methyltransferase (Candida albicans (strain SC5314 / ATCC MYA-2876) (Yeast), UniProt O74198); test: Inhibition of recombinant Candida albicans SC5314 Erg6 methyltransferase activity using zymosterol as substrate incubated for 15 mins followed by substrate addition by liquid scintillation counter analysis
T1 sequence (O74198 whole entry): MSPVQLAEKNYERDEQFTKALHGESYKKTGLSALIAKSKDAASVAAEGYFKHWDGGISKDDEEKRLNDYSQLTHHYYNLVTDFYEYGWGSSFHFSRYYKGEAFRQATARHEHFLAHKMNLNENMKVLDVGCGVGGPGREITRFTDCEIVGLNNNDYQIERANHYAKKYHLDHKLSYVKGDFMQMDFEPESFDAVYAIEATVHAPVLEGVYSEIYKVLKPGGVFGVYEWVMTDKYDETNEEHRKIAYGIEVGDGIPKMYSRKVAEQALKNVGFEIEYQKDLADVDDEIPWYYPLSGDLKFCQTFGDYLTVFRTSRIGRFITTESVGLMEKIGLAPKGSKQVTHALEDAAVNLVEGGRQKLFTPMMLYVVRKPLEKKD

Candida albicans [7] = test: Antifungal activity against Candida albicans SC5314 assessed as inhibition of hyphae growth measured after 30 passages; format: functional, organism-based
Candida albicans [8] = test: Antifungal activity against Candida albicans SC5314 assessed as inhibition of hyphae growth incubated for 24 hrs by CLSI protocol based broth microdilution method; format: functional
[9] = Cytotoxicity against human HUVEC cells incubated for 48 hrs by CCK-8 method; format: toxicity, cell-based
[10] = Cytotoxicity against human BEAS-2B cells incubated for 48 hrs by CCK-8 method; format: toxicity, cell-based
Candida albicans [11] = test: Synergistic antifungal activity against Candida albicans SC5314 assessed as inhibition of fungal growth incubated for 24 hrs in presence of tridemorph by broth microdilution checkerboard assay; format: functional
[12] = Hemolytic activity in mouse RBC assessed as hemolysis at 2 to 32 ug/ml incubated for 60 mins by absorbance based analysis relative to control; format: toxicity, cell-based, Erythrocyte; settings: mouse red blood cells, at 2 to 32 µg/mL, dose 2-32 µg/ml, read-out: Activity
Candida albicans [13] = test: Synergistic antifungal activity against Candida albicans SC5314 assessed as inhibition of fungal growth incubated for 24 hrs in presence of terbinafine by broth microdilution checkerboard assay; format: functional
Candida albicans [14] = test: Synergistic antifungal activity against Candida albicans SC5314 assessed as fractional inhibitory concentration index incubated for 24 hrs in presence of terbinafine by broth microdilution checkerboard assay; format: functional
Candida albicans [15] = test: Synergistic antifungal activity against Candida albicans SC5314 assessed as fractional inhibitory concentration index incubated for 24 hrs in presence of tridemorph by broth microdilution checkerboard assay; format: functional

| Structure (SMILES) | MIC80 (Candida albicans [1]) [µg/mL] | MIC80 (Candida albicans [2]) [µg/mL] | MIC80 (Candida albicans [3]) [µg/mL] | MIC80 (Candida albicans [4]) [µg/mL] | MIC80 (Candida albicans [5]) [µg/mL] | IC50 [6] [µM] | Activity (Candida albicans [7]) | MIC50 (Candida albicans [8]) [µg/mL] | EC50 at 48 h [9] [µg/mL] | EC50 at 48 h [10] [µg/mL] | MIC80 (Candida albicans [11]) [µg/mL] | hemolysis at 1 h [12] [%] | MIC80 (Candida albicans [13]) [µg/mL] | fractional inhibitory concentration index (FICI) (Candida albicans [14]) | fractional inhibitory concentration index (FICI) (Candida albicans [15]) |
| --- | --- | --- | --- | --- | --- | --- | --- | --- | --- | --- | --- | --- | --- | --- | --- |
| CN(C/C=C/C#CC(C)(C)C)Cc1cccc2ccccc12 [TERBINAFINE] | 32 (≈ 110 µM) | 0.5 (≈ 1.72 µM) | 0.008 | 32 (≈ 110 µM) | 0.5 | – | – | – | – | – | – | – | – | – | – |
| Cc1c(-n2c(-c3ccc(Br)cc3)cs/c2=N\c2ccccc2)c(=O)n(-c2ccccc2)n1C | > 128 | – | – | – | – | 1.01 | Active | 2 (≈ 3.87 µM) | > 50 | > 50 | 8 | < 1 | 8 | <0.1 | <0.1 |
| CCCCCCCCCCCCCN1CC(C)OC(C)C1 (stereo unspecified) [TRIDEMORPH] | > 128 | 0.008 (≈ 0.0269 µM) | 0.008 | > 128 | 0.5 | – | – | – | – | – | – | – | – | – | – |
